Measured values reported in patent US20070275935A1, “Estratriene Derivatives” (priority 2003, published 2007).

Legend:
Pulmonary fibroblasts = assay: bFGF-induced proliferation of human pulmonary fibroblasts; assay type: cell-based; conditions: for effect on bFGF-induced increase in pulmonary fibroblast cell number, in words: concentration range of 1 to 1000 nM, bFGF 300 pM, 48 h; for pFib - bFGF: inhibition of bFGF (300 pM)-induced proliferation, mean and SEM, minimum 3 experiments, 1 μM, * not defined
Description: Samples of parenchyma from human lung transplant recipients were dissected away from the pleura, chopped into fragments of less than 1 mm^2 and allowed to adhere to plastic culture dishes in a minimal volume of DMEM containing serum (10%) and antibiotics (as used for HASM culture). After the tissue fragments had adhered to the base of the dish additional medium was added. Medium was changed twice weekly until an explant culture formed, at which time the tissue fragments were removed and the cells were passaged in a 1:3 split ratio by exposure to trypsin weekly to produce pulmonary fibroblast cultures.
Pulmonary fibroblasts were cultured in DMEM, serum-deprived for 24 h, in the presence or absence of the test compounds, and then stimulated with 300 pM bFGF for 48 h before harvest and counting of viable cells. An increase pulmonary fibroblast cell number was prevented by 4NOM over the concentration range of 1 to 1000 nM.
A range of the disclosed compounds was subsequently examined using the above assay system, and the results are summarized in Column E of Table 4. […] The proliferation of parenchymal fibroblasts is important in the development of pulmonary fibrosis.

[1] = test system: Human airway smooth muscle (HASM) cells; assay: Thrombin-induced proliferation of human airway smooth muscle (HASM) cells, cell number after 48 h; assay type: cell-based; conditions: for Cell number (% control) Thrombin (0.3 U/ml): 30 min pre-incubation, mean ± SEM (n), without analogue 133.5 ± 4.1; for Cell number (% control) Thrombin (0.3 U/ml) / inhibition of thrombin-mediated HASM proliferation, in words (FIG. 1): 48 h; for HASM-Thr pIC50 / IC50: negative log of the concentration that reduces the thrombin-induced proliferative response by 50%, pIC50 of 4.00 = inactive; for inhibition of thrombin-mediated HASM proliferation, in words (FIG. 1): thrombin 0.3 U/ml; for HASM- Thr pIC25 / HASM- Thr pIC75: two site model, thrombin-induced proliferation; for HASM- Thr pIC25: first phase (inhibition up to 50%); for HASM- Thr pIC75: second phase (inhibition up to 100%); for IC50: Homo sapiens, read-out: HASM-Thr pIC50 (converted)
How it was run: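 Primary human bronchial smooth muscle cells seeded at 1.5×10^4 cells/cm², serum-starved 24 h, pre-incubated with compound 30 min, then stimulated 48 h with thrombin 0.3 U/ml. Cells counted by haemocytometer with trypan blue; pIC50 as negative log concentration halving proliferative response.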

| SMILES | effect on bFGF-induced increase in pulmonary fibroblast cell number, in words (Pulmonary fibroblasts) | pFib - bFGF (Pulmonary fibroblasts) | Cell number (% control) Thrombin (0.3 U/ml) ([1]; analogue 1 μM) | HASM-Thr pIC50 [1] | inhibition of thrombin-mediated HASM proliferation, in words (FIG. 1) [1] | HASM- Thr pIC25 [1] | HASM- Thr pIC75 [1] | IC50 [1] [nM] | pFib - bFGF (Pulmonary fibroblasts; listed as 4NOM) | Cell number (% control) Thrombin (0.3 U/ml) ([1]; analogue 10 μM) |
| --- | --- | --- | --- | --- | --- | --- | --- | --- | --- | --- |
| COc1cc2c(cc1O)C(=NOCc1ccc([N+](=O)[O-])cc1)C[C@@H]1[C@@H]2CC[C@]2(C)[C@@H](O)CC[C@@H]12 [CP-DM-2-11-7, 2-methoxy-6-(4-nitrobenzyloxy)iminoestradiol] | significantly reduced the proliferative response | 63 ± 15* | 111.1 ± 6.9 (13) % control | 6.90 | inhibitory activity on proliferation of HASM cells over a wide concentration range (10 nM to 10 μM) | 8.82 | 5.66 |  |  |  |
| COc1cc2c(cc1O)/C(=N/OCc1ccc(SC(F)(F)F)cc1)C[C@@H]1[C@@H]2CC[C@]2(C)[C@@H](O)CC[C@@H]12 [CP-DM-4-65, 2-methoxy-6-(4-trifluoromethylthiobenzyloxy)iminoestradiol] |  | 32 ± 23 |  |  |  |  |  | 224 |  |  |
| C[C@]12CC[C@@H]3c4ccc(O)cc4CC[C@H]3[C@@H]1CC/C2=N\OCc1cccc([N+](=O)[O-])c1 [CP-DM-3-102, estrone-17-(3-nitrobenzyl)oxime] |  | 96 ± 4* |  |  |  | 8.03 | 5.99 | 89.1 |  |  |
| COc1cc2c(cc1O)C(=NOCc1ccc([N+](=O)[O-])cc1)C[C@@H]1[C@@H]2CC[C@]2(C)C(=NO)CC[C@@H]12 [CP-DM-3-91, 2-methoxy-6-(4-nitrobenzyloxy)iminoestrone-17-oxime] | prevented | 49 ± 14* | 117.5 ± 8.5 (8) % control | 7.59 | considerably more potent than either 2MEO or 4NO | 10.32 | 5.70 |  | significant inhibitory activity |  |
| COc1cc2c(cc1O)/C(=N/OCc1cc(F)cc(F)c1)C[C@@H]1[C@@H]2CC[C@]2(C)[C@@H](O)CC[C@@H]12 [CP-DM-4-35, 6-(3,5-difluorobenzyloxy)imino-2-methoxyestradiol] |  | 22 ± 14 |  |  |  | 7.80 | 5.75 | 141 |  |  |
| COc1cc2c(cc1O)CC[C@@H]1[C@@H]2CC[C@]2(C)[C@@H](O)CC[C@@H]12 [2-methoxyestradiol, reference compound] |  | 62 ± 20* |  | 5.49 |  | 5.94 | 4.98 |  |  | 100.9 ± 8.1 (13) % control |
